The text below walks through data of patent US6586369B1, “Fungicidal agents containing pyrrolidones as their active agents and use thereof for treating plants” (BASF Aktiengesellschaft, priority 2000, dated 2003).

The term melting point denotes the temperature of the solid-liquid transition.

SMILES strings stand for the structures.

One series has as its system harmful fungi. Put plainly: Fungicidal activity, general statement, no test named. The following applies: no test conditions given.

For `O=C1C(Br)=C(c2ccccc2)C(=O)N1Nc1ccccc1` [No. 486, 1-Anilino-3-bromo-4-phenylpyrrol-2,5-dione], the melting point was in the range of 148 to 149 °C.

`C[S+]([O-])C1=C(c2ccccc2)C(=O)N(Nc2ccccc2)C1=O` (stereo not shown) [No. 1042, 1-Anilino-3-methylsulfinyl-4-phenylpyrrol-2,5-dione]: the melting point lay within 178 to 180 °C.

The compound `O=C1C(Cl)=C(c2ccccc2)C(=O)N1Nc1ccccc1` [No. 1, 1-Anilino-3-chloro-4-phenylpyrrol-2,5-dione] returned a melting point of 143 to 145 °C. Further, in the series with harmful fungi, the “fungicidal activity (in words)” value was “excellent fungicidal activity”.
